From BindingDB's records for doi:10.1021/cb800162x (Yale University, 2008)

How the values were obtained:
[1] = molecular target: T1, Heat shock protein HSP 90-beta (Homo sapiens, UniProt P08238); assay: Cell Proliferation Assay; conditions: 37 °C
From the text: Cell assay using BT474, SKBR3 and MCF-12F cell lines measured by WST-1 colorimetric cell proliferation assay.

[2] = molecular target: T1, Heat shock protein HSP 90-beta; assay: AlphaScreen Assay
From the text: AlphaScreen technology based high-throughput (ALPHA) assay is used to identify inhibitors of Hsp90-TPR2A interaction.

T1 sequence (P08238 whole entry): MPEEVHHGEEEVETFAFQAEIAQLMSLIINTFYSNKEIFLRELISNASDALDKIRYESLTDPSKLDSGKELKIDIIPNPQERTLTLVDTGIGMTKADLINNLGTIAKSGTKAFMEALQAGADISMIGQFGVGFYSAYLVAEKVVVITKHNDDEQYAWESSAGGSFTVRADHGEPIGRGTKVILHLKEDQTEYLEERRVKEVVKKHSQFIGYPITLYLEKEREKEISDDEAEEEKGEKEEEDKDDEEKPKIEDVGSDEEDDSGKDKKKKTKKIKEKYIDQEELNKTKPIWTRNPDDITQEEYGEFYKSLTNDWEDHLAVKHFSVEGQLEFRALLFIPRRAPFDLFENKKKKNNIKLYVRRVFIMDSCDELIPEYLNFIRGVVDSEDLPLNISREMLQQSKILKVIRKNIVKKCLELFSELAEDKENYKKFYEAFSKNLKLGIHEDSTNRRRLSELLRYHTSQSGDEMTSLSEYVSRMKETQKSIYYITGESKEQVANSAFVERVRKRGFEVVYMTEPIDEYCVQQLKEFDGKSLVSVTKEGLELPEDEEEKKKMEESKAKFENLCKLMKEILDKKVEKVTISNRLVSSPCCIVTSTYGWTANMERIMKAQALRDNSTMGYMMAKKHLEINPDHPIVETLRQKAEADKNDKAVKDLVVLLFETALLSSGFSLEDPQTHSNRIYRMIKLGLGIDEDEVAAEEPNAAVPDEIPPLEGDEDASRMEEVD

SMILES	EC50 [1]	Kd [2]
Cc1nc2c(=O)n(C)c(=O)nc-2n(C)n1 [1,3,6-Trimethyl-1H-pyrimido[5,4-e][1,2,4]triazine-5,7-dione]	946 nM	492 nM
Cn1nc(-c2ccccc2)nc2c(=O)n(C)c(=O)nc1-2 [1,6-dimethyl-3-phenyl-1H,5H,6H,7H-pyrimido[5,4-e][1,2,4]triazine-5,7-dione, 10]	690 nM	585 nM
CCCc1nc2c(=O)n(C)c(=O)nc-2n(C)n1 [1,6-dimethyl-3-propyl-pyrimido[5,4-e][1,2,4]triazine-5,7-dione]	917 nM	414 nM
CCn1nc(-c2ccccc2)nc2c(=O)n(C)c(=O)nc1-2 [1-Ethyl-6-methyl-3-phenyl-1H-pyrimido[5,4-e][1,2,4]triazine-5,7-dione]	1720 nM	360 nM
CCn1nc(-c2cccs2)nc2c(=O)n(C)c(=O)nc1-2 [1-ethyl-6-methyl-3-thiophen-2-yl-pyrimido[5,4-e][1,2,4]triazine-5,7-dione]	1210 nM	365 nM
CCn1nc(Cc2ccccc2)nc2c(=O)n(C)c(=O)nc1-2 [3-benzyl-1-ethyl-6-methyl-1H,5H,6H,7H-pyrimido[5,4-e][1,2,4]triazine-5,7-dione, 13]	4270 nM	182 nM
